Data reported in PubChem BioAssay AID330 (DTP/NCI, 2004).
“And” between values parts separate entries of the source, which are not always exact repeats. Identical values can stand only once. Inconclusive results and toxic doses are left out. How the source made its calls: active means survival T/C of 150% or more; inactive means T/C below 125% in these data.

System: P388 leukemia ip, CD2F1 mice, survival T/C
Experiment: NCI In Vivo Anticancer Drug Screen. Data for tumor model P388 Leukemia (intraperitoneal) in CD2F1 (CDF1) mice
Conditions: endpoint: median survival time, higher = longer survival
In short: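 Mice carrying the transplanted tumor received test compound or vehicle. Survival was recorded in each group, and the value is the treated-group measurement divided by that of the vehicle-treated control group.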

[1] = dose: 50.0 mg/kg/injection, schedule: Q01DX009 (ip), vehicle: saline with Tween-80
[2] = dose: 100.0 mg/kg/injection, schedule: Q01DX009 (ip), vehicle: saline with Tween-80
[3] = dose: 50.0 mg/kg/injection, schedule: Q01DX005 (ip), vehicle: Klucel (hydroxypropylcellulose) (HPC)
[4] = dose: 100.0 mg/kg/injection, schedule: Q01DX005 (ip), vehicle: Klucel (hydroxypropylcellulose) (HPC)
[5] = dose: 200.0 mg/kg/injection, schedule: Q01DX005 (ip), vehicle: Klucel (hydroxypropylcellulose) (HPC)
[6] = dose: 60.0 mg/kg/injection, schedule: Q01DX005 (ip), vehicle: saline with Tween-80
[7] = dose: 200.0 mg/kg/injection, schedule: Q01DX009 (ip), vehicle: saline with Tween-80

Measured: T/C

COC(=O)C1=C[C@H]2O[C@H]2[C@H](O)C1
inactive: dose: 1.5 mg/kg/injection, schedule: Q01DX005 (ip), vehicle: Klucel (hydroxypropylcellulose) (HPC) 100 % of control | dose: 3.0 mg/kg/injection, schedule: Q01DX005 (ip), vehicle: Klucel (hydroxypropylcellulose) (HPC) 106 % of control | dose: 6.0 mg/kg/injection, schedule: Q01DX005 (ip), vehicle: Klucel (hydroxypropylcellulose) (HPC) 101 % of control | dose: 12.0 mg/kg/injection, schedule: Q01DX005 (ip), vehicle: Klucel (hydroxypropylcellulose) (HPC) 100 % of control

O=C(O)C1Cc2c([nH]c3ccccc23)CN1 (configuration not stated)
inactive: dose: 12.5 mg/kg/injection, schedule: Q01DX009 (ip), vehicle: suspension in saline 100 % of control | dose: 25.0 mg/kg/injection, schedule: Q01DX009 (ip), vehicle: suspension in saline 109 % of control | dose: 50.0 mg/kg/injection, schedule: Q01DX009 (ip), vehicle: suspension in saline 105 % of control | dose: 100.0 mg/kg/injection, schedule: Q01DX009 (ip), vehicle: suspension in saline 106 % of control

CCN(C)C12CN3CN(CN(C3)C1)C2
inactive: dose: 100.0 mg/kg/injection, schedule: Q01DX001 (ip), vehicle: saline 101 % of control | dose: 200.0 mg/kg/injection, schedule: Q01DX001 (ip), vehicle: saline 110 % of control | dose: 400.0 mg/kg/injection, schedule: Q01DX001 (ip), vehicle: saline 102 % of control

COc1cc(OC)c(NC(=O)ON2C(=O)c3ccccc3C2=O)cc1Cl
inactive: dose: 12.5 mg/kg/injection, schedule: Q01DX009 (ip), vehicle: saline with Tween-80 119 % of control | dose: 25.0 mg/kg/injection, schedule: Q01DX009 (ip), vehicle: saline with Tween-80 122 % of control | [1] 122 % of control | [2] 110 % of control

COC1=CC(C)C2CC3OC(=O)CC4C(C)=C(OC)C(=O)C(C2(C)C1=O)C34C (configuration not stated)
inactive: [3] 95 % of control | [4] 101 % of control | [5] 101 % of control

CSc1nc2c(nnn2C2OCC(O)C(O)C2O)c(=O)n1C (configuration not stated)
inactive: [6] 102 % of control | dose: 120.0 mg/kg/injection, schedule: Q01DX005 (ip), vehicle: saline with Tween-80 99 % of control | dose: 240.0 mg/kg/injection, schedule: Q01DX005 (ip), vehicle: saline with Tween-80 96 % of control

CC(=O)OC1C(O)C(C)OC(OC2C(OC(=O)C3CCC4C(C3)OC3(CC(OC(=O)/C=C/c5ccccc5)C(C)CO3)C43CO3)OC(C)C(O)C2OC(C)=O)C1O (configuration not stated)
inactive: dose: 0.25 mg/kg/injection, schedule: Q01DX009 (ip), vehicle: saline 91 % of control | dose: 0.5 mg/kg/injection, schedule: Q01DX009 (ip), vehicle: saline 100 % of control | dose: 1.0 mg/kg/injection, schedule: Q01DX009 (ip), vehicle: saline + alcohol 113 % of control | dose: 1.0 mg/kg/injection, schedule: Q01DX009 (ip), vehicle: saline 110 % of control | dose: 2.0 mg/kg/injection, schedule: Q01DX009 (ip), vehicle: saline + alcohol 119 % of control | dose: 2.0 mg/kg/injection, schedule: Q01DX009 (ip), vehicle: saline 117 % of control | dose: 4.0 mg/kg/injection, schedule: Q01DX009 (ip), vehicle: saline + alcohol 124 % of control

Cc1ccccc1N1C(=O)CC2(CCCC2)C1=O
inactive: [1] 97 % of control | [2] 113 % of control | [7] 94 % of control

COc1cc(N=Nc2c(Cl)cc([N+](=O)[O-])cc2Cl)c([OH+]C)cc1[N+]#N.COc1cc(N=Nc2c(Cl)cc([N+](=O)[O-])cc2Cl)c([OH+]C)cc1[N+]#N.[Cl][Zn][Cl]
inactive: dose: 50.0 mg/kg/injection, schedule: Q01DX009 (ip), vehicle: saline 111 % of control and 115 % of control | dose: 100.0 mg/kg/injection, schedule: Q01DX009 (ip), vehicle: saline 120 % of control and 122 % of control | dose: 200.0 mg/kg/injection, schedule: Q01DX009 (ip), vehicle: saline 119 % of control and 124 % of control | dose: 400.0 mg/kg/injection, schedule: Q01DX009 (ip), vehicle: saline 119 % of control

CSc1nsc(SC)c1C(N)=O
inactive: dose: 60.0 mg/kg/injection, schedule: Q01DX005 (ip), vehicle: Klucel (hydroxypropylcellulose) (HPC) 99 % of control | dose: 120.0 mg/kg/injection, schedule: Q01DX005 (ip), vehicle: Klucel (hydroxypropylcellulose) (HPC) 98 % of control | dose: 240.0 mg/kg/injection, schedule: Q01DX005 (ip), vehicle: Klucel (hydroxypropylcellulose) (HPC) 105 % of control

COc1cc(O)c2c(c1)C(=O)C1=C(C2=O)[C@@H](C)OC(C)C1 (some centres not stated)
inactive: dose: 15.0 mg/kg/injection, schedule: Q01DX005 (ip), vehicle: saline with Tween-80 94 % of control | dose: 30.0 mg/kg/injection, schedule: Q01DX005 (ip), vehicle: saline with Tween-80 96 % of control | [6] 88 % of control and 94 % of control

CNCCSSCCN
inactive: dose: 25.0 mg/kg/injection, schedule: Q04DX003 (ip), vehicle: saline 100 % of control | dose: 50.0 mg/kg/injection, schedule: Q04DX003 (ip), vehicle: saline 90 % of control | dose: 100.0 mg/kg/injection, schedule: Q04DX003 (ip), vehicle: saline 86 % of control

COC(/C=N/OC(=O)c1ccc([N+](=O)[O-])cc1)c1ccccc1 (configuration not stated)
inactive: dose: 25.0 mg/kg/injection, schedule: Q04DX003 (ip), vehicle: saline with Tween-80 89 % of control and 92 % of control | dose: 50.0 mg/kg/injection, schedule: Q04DX003 (ip), vehicle: saline with Tween-80 92 % of control and 94 % of control

CN1C(=O)/C(=N\n2c(-c3ccccc3)nc3ccccc3c2=O)c2ccccc21
inactive: dose: 25.0 mg/kg/injection, schedule: Q01DX005 (ip), vehicle: Klucel (hydroxypropylcellulose) (HPC) 91 % of control | [3] 87 % of control and 88 % of control | [4] 102 % of control and 89 % of control | [5] 100 % of control

O=c1nc(-c2ccccc2)c(-c2ccccc2)n[nH]1
inactive: [1] 100 % of control | [2] 100 % of control | [7] 100 % of control

CCC[CH2][Sn]([CH2]CCC)([S]C(C)=O)[S]C(C)=O
inactive: dose: 12.5 mg/kg/injection, schedule: Q01DX001 (ip), vehicle: Klucel (hydroxypropylcellulose) (HPC) 113 % of control | dose: 25.0 mg/kg/injection, schedule: Q01DX001 (ip), vehicle: Klucel (hydroxypropylcellulose) (HPC) 105 % of control | dose: 50.0 mg/kg/injection, schedule: Q01DX001 (ip), vehicle: Klucel (hydroxypropylcellulose) (HPC) 114 % of control

Cc1ccc2cccc(OC(=O)c3c(F)cccc3Cl)c2n1
inactive: [3] 99 % of control | [4] 96 % of control | [5] 99 % of control

N#CCCn1ncc(C#N)c1N
inactive: [3] 99 % of control | [4] 107 % of control | [5] 90 % of control

[Fe+2].[Fe+2].c1ccc2c(c1)-c1nc-2nc2[n-]c(nc3nc(nc4[n-]c(n1)c1ccccc41)-c1ccccc1-3)c1cc3c4nc5nc(nc6[n-]c(nc7nc(nc([n-]4)c3cc21)-c1ccccc1-7)c1ccccc61)-c1ccccc1-5
inactive: [3] 100 % of control | [4] 110 % of control | [5] 106 % of control

CSC1(C)C(=O)Nc2cccc([N+](=O)[O-])c21 (configuration not stated)
inactive: dose: 100.0 mg/kg/injection, schedule: Q01DX001 (ip), vehicle: saline with Tween-80 100 % of control | dose: 200.0 mg/kg/injection, schedule: Q01DX001 (ip), vehicle: saline with Tween-80 93 % of control | dose: 400.0 mg/kg/injection, schedule: Q01DX001 (ip), vehicle: saline with Tween-80 100 % of control

COC(=O)C1C2C=CC(C1C(=O)OC)N(/C=C/c1ccccc1)C2=O (configuration not stated)
inactive: dose: 100.0 mg/kg/injection, schedule: Q04DX003 (ip), vehicle: Klucel (hydroxypropylcellulose) (HPC) 96 % of control | dose: 200.0 mg/kg/injection, schedule: Q04DX003 (ip), vehicle: Klucel (hydroxypropylcellulose) (HPC) 95 % of control | dose: 400.0 mg/kg/injection, schedule: Q04DX003 (ip), vehicle: Klucel (hydroxypropylcellulose) (HPC) 97 % of control

Cc1nc(N)[nH]c(=O)c1CCCNc1ccc(C(=O)NC(CCC(=O)O)C(=O)O)cc1 (configuration not stated)
inactive: [3] 100 % of control | [4] 97 % of control | [5] 100 % of control

c1ccc2c(c1)nc1n2CC2(CO1)COc1nc3ccccc3n1C2
inactive: [1] 99 % of control | [2] 99 % of control | [7] 104 % of control
